Measured values from patent US20120202794A1 (priority 2011, published 2012).

Assays:
HCV Replicon 1b = experiment: HCV inhibition assay, HCV replicon 1b (Clone A or ET-lunet cells; RT-PCR or luciferase reporter); type: cell-based; details: Hepatitis C virus, 96 h, HCV replicon 1b; 4 days incubation; read-out: Replicon 1b potency EC90
Method in brief: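 Inhibition read either as luciferase signal (ET replicon) or as HCV 5′-NTR RNA by RT-PCR relative to rRNA, % = (1−2^−ΔΔCt)×100, against DMSO controls, giving EC50 and EC90. Cells: Clone A or ET-lunet, seeded 1500 or 3000/well, exposed 4 days at 37 °C, 5% CO2, 0.5% DMSO.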

[1] = Cell cytotoxicity assay (MTS), CC90 as reported in Table 1, cell line not stated; type: cell-based; details: human, cell line not given
Method in brief: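 MTS read-out (490 nm, 2 h dye step) after 8-day exposure at 37° C. Huh7, HepG2, BxPC3 were seeded at 2×10^3 and CEM at 5×10^3 cells/well, with compound serially diluted from 100 μM. CC90 comes from comparison with untreated control wells.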

SMILES	EC90 (HCV Replicon 1b)	CC90 at 8 days [1]	CC90 at 8 days ([1]; MTS assay, 8 days incubation)
CC(C)C[C@H]1C(=O)N[C@@H](C2CCCC2)CN1C(=O)[C@@H]1C[C@H]1c1ccc(F)cc1 [Compound 242, (3S,6S)-6-Cyclopentyl-4-[(1R,2R)-2-(4-fluoro-phenyl)-cyclopropanecarbonyl]-3-isobutyl-piperazin-2-one]	0.06 µM	> 10 µM	–
CC(C)C[C@H]1C(=O)N[C@@H](CC2CC2)CN1C(=O)[C@@H]1C[C@H]1c1ccc(Cl)cc1 [Compound 243, (3S,6S)-4-[(1R,2R)-2-(4-Chloro-phenyl)-cyclopropanecarbonyl]-6-cyclopropylmethyl-3-isobutyl-piperazin-2-one]	0.43 µM	> 10 µM	–
CCC[C@H]1CN(C(=O)[C@@H]2C[C@H]2c2ccc(Cl)cc2)[C@@H](CC(C)C)C(=O)N1 [Compound 244, (3S,6S)-4-[(1R,2R)-2-(4-Chloro-phenyl)-cyclopropanecarbonyl]-3-isobutyl-6-propyl-piperazin-2-one]	0.07 µM	> 10 µM	–
CC(C)C[C@H]1C(=O)N[C@@H](C2CCCCC2)CN1C(=O)[C@@H]1C[C@H]1c1ccc(Cl)cc1 [Compound 245, (3S,6S)-4-[(1R,2R)-2-(4-Chloro-phenyl)-cyclopropanecarbonyl]-6-cyclohexyl-3-isobutyl-piperazin-2-one]	0.62 µM	> 10 µM	–
CC(C)C[C@H]1C(=O)N[C@@H](C2CCCC2)CN1C(=O)[C@@H]1C[C@H]1c1ccc(Cl)cc1 [Compound 246, (3S,6S)-4-[(1R,2R)-2-(4-Chloro-phenyl)-cyclopropanecarbonyl]-6-cyclopentyl-3-isobutyl-piperazin-2-one]	0.2 µM	> 10 µM	–
CC(C)C[C@H]1C(=O)N[C@@H](c2ccccc2)CN1C(=O)[C@@H]1C[C@H]1c1ccc(F)cc1 [Compound 247, (3S,6S)-4-[(1R,2R)-2-(4-Fluoro-phenyl)-cyclopropanecarbonyl]-3-isobutyl-6-phenyl-piperazin-2-one]	0.05 µM	> 10 µM	–
CC(C)C[C@H]1C(=O)N[C@@H](c2ccccc2)CN1C(=O)[C@@H]1C[C@H]1c1ccc(Cl)cc1 [Compound 248, (3S,6S)-4-[(1R,2R)-2-(4-Chloro-phenyl)-cyclopropanecarbonyl]-3-isobutyl-6-phenyl-piperazin-2-one]	0.16 µM	> 10 µM	–
CC(C)C[C@H]1CN(C(=O)[C@@H]2C[C@H]2c2ccc(C(C)(C)C)cc2)[C@@H](CC(C)C)C(=O)N1 [Compound 249, (3S,6S)-4-[(1R,2R)-2-(4-tert-Butyl-phenyl)-cyclopropanecarbonyl]-3,6-diisobutyl-piperazin-2-one]	0.75 µM	> 10 µM	–
CC(C)C[C@H]1CN(C(=O)[C@@H]2C[C@H]2c2ccc(Cl)cc2F)[C@@H](CC(C)C)C(=O)N1 [Compound 250, (3S,6S)-4-[(1R,2R)-2-(4-Chloro-2-fluoro-phenyl)-cyclopropanecarbonyl]-3,6-diisobutyl-piperazin-2-one]	0.36 µM	> 10 µM	–
CCC[C@H]1CN(C(=O)[C@@H]2C[C@H]2c2ccc(Cl)cc2F)[C@@H](CC(C)C)C(=O)N1 [Compound 251]	0.2 µM	> 10 µM	–
CC(C)C[C@H]1C(=O)N[C@@H](C2CCCCC2)CN1C(=O)[C@@H]1C[C@H]1c1ccc(Cl)cc1F [Compound 252]	0.67 µM	> 10 µM	–
CC(C)C[C@H]1C(=O)N[C@@H](C2CCCC2)CN1C(=O)[C@@H]1C[C@H]1c1ccc(Cl)cc1F [Compound 253, (3S,6S)-4-[(1R,2R)-2-(4-Chloro-2-fluoro-phenyl)-cyclopropanecarbonyl]-6-cyclopentyl-3-isobutyl-piperazin-2-one]	0.5 µM	> 10 µM	–
CC(C)C[C@H]1C(=O)N[C@@H](C(C)C)CN1C(=O)[C@@H]1C[C@H]1c1ccc(Cl)cc1F [Compound 254, (3S,6S)-4-[(1R,2R)-2-(4-Chloro-2-fluoro-phenyl)-cyclopropanecarbonyl]-3-isobutyl-6-isopropyl-piperazin-2-one]	0.66 µM	> 10 µM	–
CC(C)C[C@H]1C(=O)N[C@@H](c2ccccc2)CN1C(=O)[C@@H]1C[C@H]1c1ccc(Cl)cc1F [Compound 255, (3S,6S)-4-[(1R,2R)-2-(4-Chloro-2-fluoro-phenyl)-cyclopropanecarbonyl]-3-isobutyl-6-phenyl-piperazin-2-one]	0.36 µM	> 10 µM	–
CC(C)C[C@H]1CN(C(=O)[C@@H]2C[C@H]2c2ccc(F)cc2F)[C@@H](CC(C)C)C(=O)N1 [Compound 256, (3S,6S)-4-[(1R,2R)-2-(2,4-Difluoro-phenyl)-cyclopropanecarbonyl]-3,6-diisobutyl-piperazin-2-one]	0.22 µM	> 10 µM	–
CCC[C@H]1CN(C(=O)[C@@H]2C[C@H]2c2ccc(F)c(F)c2)[C@@H](CC(C)C)C(=O)N1 [Compound 257, (3S,6S)-4-[(1R,2R)-2-(3,4-Difluoro-phenyl)-cyclopropanecarbonyl]-3-isobutyl-6-propyl-piperazin-2-one]	0.59 µM	> 10 µM	–

SMILES	EC90 (HCV Replicon 1b)	CC90 at 8 days [1]	CC90 at 8 days ([1]; MTS assay, 8 days incubation)
CC(C)C[C@H]1C(=O)N[C@@H](C2CCCCC2)CN1C(=O)[C@@H]1C[C@H]1c1ccc(F)c(F)c1 [Compound 258, (3S,6S)-6-Cyclohexyl-4-[(1R,2R)-2-(3,4-difluoro-phenyl)-cyclopropanecarbonyl]-3-isobutyl-piperazin-2-one]	0.56 µM	> 10 µM	–
CC(C)C[C@H]1C(=O)N[C@@H](C2CCCC2)CN1C(=O)[C@@H]1C[C@H]1c1ccc(F)c(F)c1 [Compound 259, (3S,6S)-6-Cyclopentyl-4-[(1R,2R)-2-(3,4-difluoro-phenyl)-cyclopropanecarbonyl]-3-isobutyl-piperazin-2-one]	0.59 µM	> 10 µM	–
CC(C)C[C@H]1C(=O)N[C@@H](c2ccccc2)CN1C(=O)[C@@H]1C[C@H]1c1ccc(F)c(F)c1 [Compound 260, (3S,6S)-4-[(1R,2R)-2-(3,4-Difluoro-phenyl)-cyclopropanecarbonyl]-3-isobutyl-6-phenyl-piperazin-2-one]	0.23 µM	> 10 µM	–
CC(C)C[C@H]1CN(C(=O)/C=C/c2ccc(N(C)C)cc2)[C@@H](CC(C)C)C(=O)N1 [Compound 261, (3S,6S)-4-((E)-3-(4-(dimethylamino)phenyl)acryloyl)-3,6-diisobutylpiperazin-2-one]	> 10 µM	–	> 10 µM
CC(C)C[C@H]1CN(C(=O)C#Cc2cccnc2)[C@@H](CC(C)C)C(=O)N1 [Compound 262, (3S,6S)-3,6-diisobutyl-4-(3-(pyridin-3-yl)propioloyl)piperazin-2-one]	> 10 µM	–	> 10 µM
COc1ccc(/C=C/C(=O)N2C[C@H](CC(C)C)NC(=O)[C@@H]2CC(C)C)cc1 [Compound 263, (3S,6S)-3,6-diisobutyl-4-((E)-3-(4-methoxyphenyl)acryloyl)piperazin-2-one]	8.7 µM	–	> 10 µM
CC(C)C[C@H]1CN(C(=O)/C=C/c2cccc(Cl)c2)[C@@H](CC(C)C)C(=O)N1 [Compound 264, (3S,6S)-4-[3-(3-chlorophenyl)-acryloyl]-3,6-diisobutyl-piperazin-2-one]	8.1 µM	–	> 10 µM
CC(C)C[C@H]1CN(C(=O)/C=C/c2ccccc2Cl)[C@@H](CC(C)C)C(=O)N1 [Compound 265, (3S,6S)-4-[3-(2-chlorophenyl)-acryloyl]-3,6-diisobutyl-piperazin-2-one]	9.75 µM	–	> 10 µM
CC(C)C[C@H]1CN(C(=O)/C=C/c2ccccc2F)[C@@H](CC(C)C)C(=O)N1 [Compound 266]	7.93 µM	–	> 10 µM
CC(C)C[C@H]1CN(C(=O)/C=C/c2ccc(Cl)cc2Cl)[C@@H](CC(C)C)C(=O)N1 [Compound 267, (3S,6S)-4-[3-(2,4-dichloro-phenyl)-acryloyl]-3,6-diisobutyl-piperazin-2-one]	6.89 µM	–	> 10 µM
CSc1ccc(/C=C/C(=O)N2C[C@H](CC(C)C)NC(=O)[C@@H]2CC(C)C)cc1 [Compound 268, (3S,6S)-3,6-diisobutyl-4-((E)-3-(4-methylsulfanyl-phenyl)acryloyl)piperazin-2-one]	9.8 µM	–	> 10 µM
CC(C)C[C@H]1CN(C(=O)/C=C/c2ccc(C(C)(C)C)cc2)[C@@H](CC(C)C)C(=O)N1 [Compound 269, (3S,6S)-3,6-diisobutyl-4-((E)-3-(4-tert-butyl-phenyl)acryloyl)piperazin-2-one]	8.9 µM	–	> 10 µM
COC(=O)c1ccc(/C=C/C(=O)N2C[C@H](CC(C)C)NC(=O)[C@@H]2CC(C)C)cc1 [Compound 270, Methyl 4-((E)-3-((2S,5S)-2,5-diisobutyl-3-oxopiperazin-1-yl)-3-oxoprop-1-en-1-yl)-benzoate]	> 10 µM	–	> 10 µM
CC(C)C[C@H]1CN(C(=O)/C=C/c2c(F)cccc2F)[C@@H](CC(C)C)C(=O)N1 [Compound 271, (3S,6S)-4-[3-(2,6-Difluoro-phenyl)-acryloyl]-3,6-diisobutyl-piperazin-2-one]	> 10 µM	–	> 10 µM
CC(C)C[C@H]1CN(C(=O)c2cc(-c3ccc(Cl)cc3)cs2)[C@@H](CC(C)C)C(=O)N1 [Compound 272, (3S,6S)-4-(4-(4-chlorophenyl)thiophene-2-carbonyl)-3,6-diisobutylpiperazin-2-one]	3.56 µM	–	> 10 µM
CC(C)C[C@H]1CN(C(=O)c2cc(-c3ccccc3Cl)on2)[C@@H](CC(C)C)C(=O)N1 [Compound 274, (3S,6S)-4-(5-(2-chlorophenyl)isoxazole-3-carbonyl)-3,6-diisobutylpiperazin-2-one]	5.95 µM	–	> 10 µM
